Test [1] addresses T1, F317L Bcr-abl (Ba/F3 cells) (Homo sapiens, UniProt P00519, F317L).
T1 construct: expressed in transfected cells; host or cells: Ba/F3; the other entry of the earlier key: BCR (P11274, Breakpoint cluster region protein)
Description: Proliferation of Ba/F3 cells expressing mutant Bcr-abl F317L. The class given is cell-based. As for the experimental part: (§1) 2D-p210 cells are plated into 96 well TC plates at a density of 15,000 cells per well. 50 μL of two fold serial dilutions of the test compound (Cmax is 40 μM) are added to each well (STI571 is included as a positive control). After incubating the cells for 48 hours at 37° C., 5% CO2, 15 μL of MTT (Promega) is added to each well and the cells are incubated for an additional 5 hours. The optical density at 570 nm is quantified spectrophotometrically and IC50 values, the concentration of compound required for 50% inhibition, determined from a dose response curve.
(§2) Compounds of the invention are tested for their antiproliferative effect on Ba/F3 cells expressing either wild type or the mutant forms of BCR-Abl (G250E, E255V, T315I, F317L, M351T) that confers resistance or diminished sensitivity to STI571. The antiproliferative effect of these compounds on the mutant-BCR-Abl expressing cells and on the non transformed cells were tested at 10, 3.3, 1.1 and 0.37 μM as described above (in media lacking IL3). The IC50 values of the compounds lacking toxicity on the untransformed cells were determined from the dose response curves obtained as describe above.

Test [2] addresses T2, wild type Bcr-abl (Ba/F3 cells) (Homo sapiens, UniProt P00519).
T2 construct: expressed in transfected cells; host or cells: Ba/F3 (murine pro-B cells); the other entry of the earlier key: BCR (P11274, Breakpoint cluster region protein)
As to the kind of experiment: Proliferation of Ba/F3 cells expressing wild type Bcr-abl. The class given is cell-based. As for the experimental part: as §1, §2

In test [3] the target is T3, PDGFRβ (Ba/F3-Tel-PDGFRβ) (Homo sapiens, UniProt P09619).
T3 construct: expressed in transfected cells; host or cells: Ba/F3; the other entry of the earlier key: ETV6 (P41212, Transcription factor ETV6)
Description: PDGFRβ cellular assay (Ba/F3-Tel-PDGFRβ proliferation). The note with it: read-out: IC50 against PDGFRβ in the cellular assay. Type of test: cell-based.

Test [4] has as its target T4, M351T Bcr-abl (Ba/F3 cells) (Homo sapiens, UniProt P00519, M351T).
T4 construct: expressed in transfected cells; host or cells: Ba/F3; the other entry of the earlier key: BCR (P11274, Breakpoint cluster region protein)
Description: Proliferation of Ba/F3 cells expressing mutant Bcr-abl M351T. The class given is cell-based. How it is done:
as §1, §2

For test [5], the target named is T5, G250E Bcr-abl (Ba/F3 cells) (Homo sapiens, UniProt P00519, G250E).
T5 construct: expressed in transfected cells; host or cells: Ba/F3; the other entry of the earlier key: BCR (P11274, Breakpoint cluster region protein)
Description: Proliferation of Ba/F3 cells expressing mutant Bcr-abl G250E. The class given is cell-based. How it is done:
as §1, §2

Another test has as its target T6, FGFR3 (Homo sapiens, UniProt P22607).
T6 construct: purchased Upstate
Description: Upstate KinaseProfiler radio-enzymatic filter binding assay. The note with it: at a concentration of 10 μM; read-out: percentage inhibition of FGFR3. Type of test: biochemical. As for the experimental part:
(§3) Compounds of the invention are assessed for their ability to inhibit individual members of a panel of kinases (a partial, non-limiting list of kinases includes: Abl, BMX, BTK, CHK2, c-RAF, CSK, c-SRC, Fes, FGFR3, Flt3, IKKα, IKKβ, JNK2α2, Lck, Met, MKK4, MKK6, MST2, NEK2, p70S6K, PDGFRβ, PKA, PKBα, PKD2, Rsk1, SAPK2α, SAPK2β, SAPK3, SGK, Tie2 and/or TrkB. The compounds are tested in duplicates at a final concentration of 10 μM following this generic protocol. Note that the kinase buffer composition and the substrates vary for the different kinases included in the “Upstate KinaseProfiler™” panel. Kinase buffer (2.5 μL, 10×—containing MnCl2 when required), active kinase (0.001-0.01 Units; 2.5 μL), specific or Poly(Glu4-Tyr) peptide (5-500 μM or 0.01 mg/ml) in kinase buffer and kinase buffer (50 μM; 5 μL) are mixed in an eppendorf on ice. A Mg/ATP mix (10 μL; 67.5 (or 33.75) mM MgCl2, 450 (or 225) μM ATP and 1 μCi/μl [γ-^32P]-ATP (3000 Ci/mmol)) is added and the reaction is incubated at about 30° C. for about 10 minutes. The reaction mixture is spotted (20 μL) onto a 2 cm×2 cm P81 (phosphocellulose, for positively charged peptide substrates) or Whatman No. 1 (for Poly (Glu4-Tyr) peptide substrate) paper square. The assay squares are washed 4 times, for 5 minutes each, with 0.75% phosphoric acid and washed once with acetone for 5 minutes. The assay squares are transferred to a scintillation vial, 5 ml scintillation cocktail are added and ^32P incorporation (cpm) to the peptide substrate is quantified with a Beckman scintillation counter. Percentage inhibition is calculated for each reaction.

In another test the target is T7, TrkB (Homo sapiens, UniProt Q16620).
T7 construct: purchased Upstate
The test is described as above. The class given is biochemical. The note with it: at a concentration of 10 μM; read-out: percentage inhibition of TrkB. As for the experimental part: as §3

For a further test, the target named is T8, c-RAF (Homo sapiens, UniProt P04049).
T8 construct: purchased Upstate
The description is as above. The class given is biochemical. The note with it: at a concentration of 10 μM; read-out: percentage inhibition of c-RAF. How it is done:
as §3

The subject of the next test is Bcr-Abl. The description is as above. Type of test: biochemical. The note with it: at a concentration of 10 μM. As for the experimental part: as §3
For the next test, the target named is T9, p70S6K (Homo sapiens, UniProt P23443).
T9 construct: purchased Upstate
The test is described as above. The note with it: at a concentration of 10 μM; read-out: percentage inhibition of p70S6K. Type of test: biochemical. How it is done: as §3

For the next test, the target named is T10, PDGFRβ (Homo sapiens, UniProt P09619).
T10 construct: purchased Upstate
Described as above. The class given is biochemical. The note with it: at a concentration of 10 μM; read-out: percentage inhibition of PDGFRβ. As for the experimental part:
as §3

In a further test the target is T11, MKK6 (Homo sapiens, UniProt P52564).
T11 construct: purchased Upstate
Described as above. The note with it: at a concentration of 10 μM; read-out: percentage inhibition of MKK6. Type of test: biochemical. How it is done: as §3

In the next test the target is T12, Lck (Homo sapiens, UniProt P06239).
T12 construct: purchased Upstate
The test is described as above. Type of test: biochemical. The note with it: at a concentration of 10 μM; read-out: percentage inhibition of Lck. As for the experimental part: as §3

A further test addresses T13, Tie2 (Homo sapiens, UniProt Q02763).
T13 construct: purchased Upstate
Described as above. The class given is biochemical. The note with it: at a concentration of 10 μM; read-out: percentage inhibition of Tie2. How it is done: as §3

The next test deals with T14, BMX (Homo sapiens, UniProt P51813).
T14 construct: purchased Upstate
The test is described as above. The class given is biochemical. The note with it: at a concentration of 10 μM; read-out: percentage inhibition of BMX. How it is done:
as §3

The target in test [6] is T15, T315I Bcr-abl (Ba/F3 cells) (Homo sapiens, UniProt P00519, T315I).
T15 construct: expressed in transfected cells; host or cells: Ba/F3; the other entry of the earlier key: BCR (P11274, Breakpoint cluster region protein)
Description: Proliferation of Ba/F3 cells expressing mutant Bcr-abl T315I. Type of test: cell-based. As for the experimental part: as §1, §2

Each structure is given as a SMILES string.

T8 sequence (P04049 whole entry): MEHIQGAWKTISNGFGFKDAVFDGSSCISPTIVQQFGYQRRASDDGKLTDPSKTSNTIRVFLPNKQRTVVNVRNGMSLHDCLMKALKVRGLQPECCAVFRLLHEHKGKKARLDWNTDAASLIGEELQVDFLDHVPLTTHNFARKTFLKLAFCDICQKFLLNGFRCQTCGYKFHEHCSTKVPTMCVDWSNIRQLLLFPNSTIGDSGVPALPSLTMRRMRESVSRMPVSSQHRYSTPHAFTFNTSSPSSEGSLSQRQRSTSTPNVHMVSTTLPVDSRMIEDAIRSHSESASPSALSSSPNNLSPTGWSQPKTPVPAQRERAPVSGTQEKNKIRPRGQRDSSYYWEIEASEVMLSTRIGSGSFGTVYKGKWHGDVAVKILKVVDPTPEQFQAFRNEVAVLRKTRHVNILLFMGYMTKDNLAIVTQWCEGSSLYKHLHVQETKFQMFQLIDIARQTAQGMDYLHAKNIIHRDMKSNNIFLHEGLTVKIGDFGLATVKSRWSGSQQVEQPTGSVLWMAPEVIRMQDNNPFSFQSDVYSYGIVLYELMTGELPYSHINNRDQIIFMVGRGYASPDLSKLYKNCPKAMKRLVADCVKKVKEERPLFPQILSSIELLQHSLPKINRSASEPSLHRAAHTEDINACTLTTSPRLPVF
T14 sequence (P51813 whole entry): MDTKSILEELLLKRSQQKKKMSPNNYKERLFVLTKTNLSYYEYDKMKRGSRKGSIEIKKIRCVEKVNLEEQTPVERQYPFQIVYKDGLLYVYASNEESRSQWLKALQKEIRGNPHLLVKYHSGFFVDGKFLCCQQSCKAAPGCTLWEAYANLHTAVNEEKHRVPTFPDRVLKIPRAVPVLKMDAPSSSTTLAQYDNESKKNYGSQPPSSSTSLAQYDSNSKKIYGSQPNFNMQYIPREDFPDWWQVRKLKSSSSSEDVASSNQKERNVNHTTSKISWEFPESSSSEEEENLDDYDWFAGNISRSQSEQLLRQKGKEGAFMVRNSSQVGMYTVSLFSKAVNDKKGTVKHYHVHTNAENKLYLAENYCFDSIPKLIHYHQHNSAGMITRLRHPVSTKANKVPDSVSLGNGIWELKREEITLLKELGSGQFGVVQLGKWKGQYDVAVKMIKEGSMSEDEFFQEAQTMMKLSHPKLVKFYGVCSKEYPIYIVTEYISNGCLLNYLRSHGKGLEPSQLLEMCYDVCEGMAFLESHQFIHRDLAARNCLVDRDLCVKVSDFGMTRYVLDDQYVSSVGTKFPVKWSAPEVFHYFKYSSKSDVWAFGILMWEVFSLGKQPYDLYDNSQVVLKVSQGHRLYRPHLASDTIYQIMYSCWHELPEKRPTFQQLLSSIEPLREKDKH
T13 sequence (Q02763 23-1124): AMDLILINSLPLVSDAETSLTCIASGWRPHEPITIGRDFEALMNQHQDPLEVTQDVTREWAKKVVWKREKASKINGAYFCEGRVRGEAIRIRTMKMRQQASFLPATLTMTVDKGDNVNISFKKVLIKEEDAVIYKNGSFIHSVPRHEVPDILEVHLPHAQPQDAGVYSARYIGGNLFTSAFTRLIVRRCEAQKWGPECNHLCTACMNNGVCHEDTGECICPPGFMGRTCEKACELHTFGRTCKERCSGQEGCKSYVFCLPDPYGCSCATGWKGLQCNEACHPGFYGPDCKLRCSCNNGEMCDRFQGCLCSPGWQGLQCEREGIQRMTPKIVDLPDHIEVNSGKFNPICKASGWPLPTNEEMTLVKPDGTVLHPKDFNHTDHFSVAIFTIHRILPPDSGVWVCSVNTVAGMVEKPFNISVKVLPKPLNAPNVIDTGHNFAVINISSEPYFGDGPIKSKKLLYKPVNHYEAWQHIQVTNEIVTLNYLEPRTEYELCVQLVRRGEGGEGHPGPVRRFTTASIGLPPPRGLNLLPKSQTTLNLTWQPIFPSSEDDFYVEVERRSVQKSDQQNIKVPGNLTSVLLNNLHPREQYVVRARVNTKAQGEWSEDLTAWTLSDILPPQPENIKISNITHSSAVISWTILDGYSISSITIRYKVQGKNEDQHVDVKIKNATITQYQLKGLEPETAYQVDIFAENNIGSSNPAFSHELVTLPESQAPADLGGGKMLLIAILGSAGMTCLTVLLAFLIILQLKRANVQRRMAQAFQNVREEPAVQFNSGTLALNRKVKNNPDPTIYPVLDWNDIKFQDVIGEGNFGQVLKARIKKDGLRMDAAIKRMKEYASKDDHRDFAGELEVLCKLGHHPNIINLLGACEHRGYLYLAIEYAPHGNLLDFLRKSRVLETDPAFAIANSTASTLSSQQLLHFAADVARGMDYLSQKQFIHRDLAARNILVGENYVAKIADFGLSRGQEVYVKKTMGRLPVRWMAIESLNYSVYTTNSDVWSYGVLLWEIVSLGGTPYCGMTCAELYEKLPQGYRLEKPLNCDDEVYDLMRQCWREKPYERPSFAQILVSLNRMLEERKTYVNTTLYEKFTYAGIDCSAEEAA
T9 sequence (P23443 whole entry): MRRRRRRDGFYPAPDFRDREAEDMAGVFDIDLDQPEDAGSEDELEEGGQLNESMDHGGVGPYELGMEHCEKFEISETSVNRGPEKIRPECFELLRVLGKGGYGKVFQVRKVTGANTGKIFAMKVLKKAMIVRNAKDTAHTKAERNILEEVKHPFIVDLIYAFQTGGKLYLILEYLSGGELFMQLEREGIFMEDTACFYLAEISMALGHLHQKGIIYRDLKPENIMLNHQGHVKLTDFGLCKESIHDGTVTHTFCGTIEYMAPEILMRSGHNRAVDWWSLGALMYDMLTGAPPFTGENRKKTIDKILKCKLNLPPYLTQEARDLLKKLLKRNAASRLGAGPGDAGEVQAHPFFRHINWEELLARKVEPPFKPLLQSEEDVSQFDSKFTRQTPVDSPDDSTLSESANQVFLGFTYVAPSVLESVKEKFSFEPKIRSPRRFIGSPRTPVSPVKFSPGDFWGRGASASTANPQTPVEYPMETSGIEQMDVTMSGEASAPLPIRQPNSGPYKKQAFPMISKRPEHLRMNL
T10 sequence (P09619 33-1106): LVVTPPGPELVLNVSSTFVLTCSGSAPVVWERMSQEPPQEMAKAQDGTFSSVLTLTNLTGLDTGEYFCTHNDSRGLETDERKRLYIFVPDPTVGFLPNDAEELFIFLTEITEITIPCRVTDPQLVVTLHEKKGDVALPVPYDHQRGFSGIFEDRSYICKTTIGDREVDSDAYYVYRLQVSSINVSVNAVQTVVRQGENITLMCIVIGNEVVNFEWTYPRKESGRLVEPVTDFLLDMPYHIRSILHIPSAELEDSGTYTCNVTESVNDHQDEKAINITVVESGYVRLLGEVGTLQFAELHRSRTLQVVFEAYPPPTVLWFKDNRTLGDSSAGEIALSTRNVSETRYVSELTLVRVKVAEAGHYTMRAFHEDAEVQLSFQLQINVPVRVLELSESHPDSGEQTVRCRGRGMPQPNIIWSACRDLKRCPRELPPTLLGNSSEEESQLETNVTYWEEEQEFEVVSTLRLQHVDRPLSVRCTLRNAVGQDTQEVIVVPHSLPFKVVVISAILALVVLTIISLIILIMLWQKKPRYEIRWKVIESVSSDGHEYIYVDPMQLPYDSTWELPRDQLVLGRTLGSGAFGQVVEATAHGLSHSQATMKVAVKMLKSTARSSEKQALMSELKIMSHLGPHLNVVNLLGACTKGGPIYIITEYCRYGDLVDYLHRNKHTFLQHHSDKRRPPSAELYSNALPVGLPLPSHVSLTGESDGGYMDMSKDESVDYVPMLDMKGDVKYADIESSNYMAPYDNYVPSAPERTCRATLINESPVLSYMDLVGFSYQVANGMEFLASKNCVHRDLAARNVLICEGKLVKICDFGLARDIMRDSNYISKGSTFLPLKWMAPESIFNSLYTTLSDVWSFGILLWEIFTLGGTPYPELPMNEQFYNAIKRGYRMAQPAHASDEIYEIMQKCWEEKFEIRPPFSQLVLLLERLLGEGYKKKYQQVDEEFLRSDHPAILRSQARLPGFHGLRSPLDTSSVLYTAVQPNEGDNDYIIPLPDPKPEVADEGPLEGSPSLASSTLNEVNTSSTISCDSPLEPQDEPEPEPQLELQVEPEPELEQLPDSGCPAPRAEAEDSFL
T3 sequence (P09619 600-962 limits assumed): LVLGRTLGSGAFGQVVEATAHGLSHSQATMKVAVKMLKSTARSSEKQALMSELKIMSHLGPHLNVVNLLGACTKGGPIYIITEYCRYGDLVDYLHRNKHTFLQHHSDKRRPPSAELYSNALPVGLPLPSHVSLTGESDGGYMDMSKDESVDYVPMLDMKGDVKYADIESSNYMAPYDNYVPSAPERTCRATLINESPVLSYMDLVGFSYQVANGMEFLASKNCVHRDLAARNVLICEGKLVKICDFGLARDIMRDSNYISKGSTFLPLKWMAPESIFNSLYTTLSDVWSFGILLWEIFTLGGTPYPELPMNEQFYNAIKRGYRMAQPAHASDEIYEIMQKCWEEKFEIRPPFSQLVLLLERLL
T12 sequence (P06239 whole entry): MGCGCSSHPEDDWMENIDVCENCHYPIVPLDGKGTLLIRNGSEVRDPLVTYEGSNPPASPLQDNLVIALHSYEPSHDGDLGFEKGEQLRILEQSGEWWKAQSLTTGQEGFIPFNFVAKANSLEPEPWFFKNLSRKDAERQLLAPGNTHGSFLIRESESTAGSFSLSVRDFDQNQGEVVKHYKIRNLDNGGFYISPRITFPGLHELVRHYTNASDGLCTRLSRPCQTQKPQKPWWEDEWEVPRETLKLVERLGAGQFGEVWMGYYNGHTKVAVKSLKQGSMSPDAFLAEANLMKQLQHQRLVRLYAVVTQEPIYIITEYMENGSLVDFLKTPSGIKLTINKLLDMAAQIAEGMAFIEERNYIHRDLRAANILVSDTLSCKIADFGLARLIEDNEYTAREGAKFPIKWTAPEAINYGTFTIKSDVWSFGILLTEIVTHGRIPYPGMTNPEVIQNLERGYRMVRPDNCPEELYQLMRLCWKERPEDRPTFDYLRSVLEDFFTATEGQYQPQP

With `Cc1cn(-c2cc(C(=O)Nc3ccc(C)c(Nc4nccn4-c4ncnc5[nH]ccc45)c3)cc(C(F)(F)F)c2)cn1` [Example 2, 3-(4-methyl-imidazol-1-yl)-N-{4-methyl-3-[1-(7H-pyrrolo[2,3-d]pyrimidin-4-yl)-1H-imidazol-2-ylamino]-phenyl}-5-trifluoromethyl-benzamide], the 50% inhibitory concentration (IC50) in test [1] is below 0.5 nM; in [2], below 0.5 nM; in test [3] it was 4 nM; in test [4] it was below 0.5 nM; in [5], 56 nM; in [6] it was 63 nM. For the same molecule, the inhibition at 10 µM at FGFR3 worked out at 89%; on TrkB, 100%; on c-RAF, 98%; on p70S6K, 86%; at PDGFRβ it was 83%; at MKK6 it was 99%. Moreover, the inhibition at 10 µM on Lck, at Tie2 and at BMX was 99% in each case. Further, the “percentage inhibition of Bcr-Abl” value in the test on Bcr-Abl stood at 99%.

As a reminder, the IC50 is the point on the concentration scale where inhibition reaches its midpoint. One may read the inhibition as the share of the control response that was lost under treatment.
